Reference: the supplement of paper PMC3493320

Tested on: NCI-H295R
Test: IC50 (antiproliferative, ATP content)
Settings: 48 h
Procedure, shortened: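 Adrenocortical carcinoma cells (1500 per well) were seeded in serum-free ITS-supplemented DMEM in 1536-well plates and cultured overnight. Library compounds were then pin-transferred at 8 final concentrations from 0.6 nM to 46 µM, and plates were kept 48 h at 37 °C, 5% CO2. ATP was read as CellTiter-Glo luminescence after 20 min at room temperature and normalised to vehicle (0%) and positive control (100% inhibition). IC50 came from four-parameter logistic fits; compounds with no concentration response were recorded as above the top dose.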

IC50	SMILES
> 46 µM	CCCCCCCCCCCCCCCCCC[N+](C)(C)CCC[Si](OC)(OC)OC.[Cl-]
> 46 µM	CNC1CCCN(c2c(F)cc3c(=O)c(C(=O)O)cn(C4CC4)c3c2OC)C1 (configuration not stated)
> 46 µM	Cc1cc2c(s1)Nc1ccccc1N=C2N1CCN(C)CC1
> 46 µM	FC(F)(F)C(F)(F)C(F)(F)C(F)(F)C(F)(F)C(F)(F)C(F)(F)C(F)(F)Br
> 46 µM	CC(C)Cc1ccc(C(C)C(=O)O)cc1 (configuration not stated)
> 46 µM	CCCCCCCCCCCCCCCCO
> 46 µM	O=C(O)Cc1ccc(-c2ccccc2)cc1
> 46 µM	N\1(C(NC(/C(=C/1)C)=O)=O)[C@@H]2O[C@H](CO)[C@H](C2)O
> 46 µM	CO[C@H]1O[C@@H]2O[C@@]3(C)CC[C@H]4[C@H](C)CC[C@@H]([C@H]1C)[C@@]24OO3
> 46 µM	CC(CNC(=O)c1cccnc1)NC(=O)c1cccnc1 (configuration not stated)
> 46 µM	CC(=O)O[C@H]1C[C@@]2(C)[C@@H](C[C@@H](O)[C@H]3[C@@]4(C)CC[C@@H](O)[C@@H](C)[C@@H]4CC[C@@]32C)/C1=C(\CCC=C(C)C)C(=O)[O-].[Na+]
> 46 µM	O=C1c2ccccc2CN2C(=O)c3ccccc3CN12
> 46 µM	CCN1CCCC(OC(=O)C(c2ccccc2)c2ccccc2)C1.Cl (configuration not stated)
> 46 µM	O=C(O)CCC(=O)Nc1ccc(S(=O)(=O)Nc2nccs2)cc1
> 46 µM	CN(C)C(=O)Nc1ccc(Cl)c(Cl)c1
> 46 µM	O[C@H]1[C@H](O)[C@@H](O)[C@H](O)[C@@H](O)[C@H]1O
> 46 µM	OC1OC[C@@H](O)[C@H](O)[C@@H]1O (some centres not stated)
> 46 µM	C/C(=C\C(=O)OCCCCCCCCC(=O)O)C[C@@H]1OC[C@H](C[C@@H]2O[C@H]2[C@@H](C)[C@H](C)O)[C@@H](O)[C@H]1O
> 46 µM	CCC(=O)O[C@]1(C(=O)SCF)[C@H](C)C[C@H]2C3C[C@H](F)C4=CC(=O)C=C[C@]4(C)[C@@]3(F)[C@@H](O)C[C@@]21C (some centres not stated)
> 46 µM	NCC(O)CC(=O)O (configuration not stated)
> 46 µM	CCOC(=O)C1=C(COCCN)NC(C)=C(C(=O)OC)C1c1ccccc1Cl.O=S(=O)(O)c1ccccc1 (configuration not stated)
> 46 µM	COc1ccc(C2CNC(=O)C2)cc1OC1CCCC1 (configuration not stated)
> 46 µM	Cc1cccc(C)c1NC(=O)NC1=CCCN1C
> 46 µM	CCCC1C(=O)N2C(N(C)C)=Nc3ccc(C)cc3N2C1=O (configuration not stated)
> 46 µM	COc1ncnc(NS(=O)(=O)c2ccc(N)cc2)c1OC
> 46 µM	CC1CCN(CCCC(=O)c2ccc(F)cc2)CC1
> 46 µM	Cl.c1ccc(CC2=NCCN2)cc1

IC50	SMILES
> 46 µM	CC(C)C(=O)Nc1ccc([N+](=O)[O-])c(C(F)(F)F)c1
> 46 µM	Cc1ccccc1N1C(=O)c2cc(S(N)(=O)=O)c(Cl)cc2NC1C (configuration not stated)
> 46 µM	CN(C(=O)c1c(O)c2ccccc2n(C)c1=O)c1ccccc1
> 46 µM	CC(=O)[C@H]2CC[C@H]3[C@@H]4\C=C/C1=C/C(=O)CC[C@@]1(C)[C@@H]4CC[C@]23C
> 46 µM	Cc1nc2n(c(=O)c1CCN1CCC(c3noc4cc(F)ccc34)CC1)CCCC2
> 46 µM	CCCN[C@H]1CCc2nc(N)sc2C1
> 46 µM	CC(=O)OCC(=O)NCCCOc1cccc(CN2CCCCC2)c1.Cl
> 46 µM	Cl.c1ccc2c(c1)CCCC2C1=NCCN1 (configuration not stated)
> 46 µM	Cc1ccccc1OCC(O)CNCCOc1ccc(C(N)=O)cc1 (configuration not stated)
> 46 µM	CN(C)C(=S)SC(=S)N(C)C
> 46 µM	Nc1ccc(C=Cc2ccc(N)cc2S(=O)(=O)O)c(S(=O)(=O)O)c1
> 46 µM	CC(=O)OCC(=O)[C@@]1(O)CC[C@H]2[C@@H]3CCC4=CC(=O)C=C[C@]4(C)[C@@]3(F)[C@@H](O)C[C@@]21C
> 46 µM	CC(=O)N[C@H]1[C@@H](O[C@@H]2C(C(=O)[O-])C[C@@H](O[C@H]3[C@H](C)[C@@H](NS(=O)(=O)O)[C@@H](OC4C(C(=O)[O-])O[C@@H](OC5[C@H]6CO[C@H](O6)[C@H](NS(=O)(=O)[O-])[C@H]5O)[C@H](O)[C@H]4O)O[C@@H]3COS(=O)(=O)O)[C@H](O)[C@H]2O)O[C@H](COS(=O)(=O)O)[C@@H](O[C@@H]2OC(C(=O)[O-])=C[C@H](O)[C@H]2OS(=O)(=O)O)[C@@H]1O.[Na+].[Na+].[Na+].[Na+] (some centres not stated)
> 46 µM	CS(=O)(=O)c1ccc([C@@H](O)[C@@H](COC(=O)CN)NC(=O)C(Cl)Cl)cc1.Cl
> 46 µM	CO/N=C(\C(=O)N[C@@H]1C(=O)N2C(C(=O)[O-])=C(CSc3nc(=O)c([O-])nn3C)CS[C@H]12)c1csc(N)n1.O.O.O.[Na+].[Na+]
> 46 µM	NC(=O)NS(=O)(=O)c1ccc(N)cc1
> 46 µM	COc1ccc(CCN(C)CCCN2CCc3cc(OC)c(OC)cc3CC2=O)cc1OC.Cl
> 46 µM	O=[C@](COC(C)=O)[C@](CC4)(O)[C@]2(C)[C@]4([H])[C@]1([H])CCC([C@@](C=C3)(C)[C@]([H])1[C@@H](O)C2)=CC3=O
> 46 µM	CC(C)NCC(O)COc1ccc(CCOCC2CC2)cc1 (configuration not stated)
> 46 µM	Cc1ncc[nH]1
> 46 µM	C[C@]12CC[C@@H]3c4ccc(OC(=O)c5ccccc5)cc4CC[C@H]3[C@@H]1CC[C@@H]2O
> 46 µM	CC(C)=CCC/C(C)=C/CC/C(C)=C/CC/C(C)=C/CC1=C(C)C(=O)c2ccccc2C1=O
> 46 µM	CC1(c2ccccc2)OC(C(=O)O)=CC1=O (configuration not stated)
> 46 µM	[C@]23([C@](OC(c1occc1)=O)([C@H](C)C[C@H]2[C@H]5[C@]([C@H](C3)O)([C@@]\4(\C(=C/C(/C=C/4)=O)CC5)C)Cl)C(=O)CCl)C
> 46 µM	Cl.O=c1n(CCCN2CCN(c3cccc(Cl)c3)CC2)nc2ccccn12
> 46 µM	N#CCC(=O)NN
> 46 µM	CC=Cc1ccc(O)c(OC)c1

IC50	SMILES
> 46 µM	COc1ccc2c(c1)C(=O)N(CCc1ccc(S(=O)(=O)NC(=O)NC3CCCCC3)cc1)C(=O)C2(C)C
> 46 µM	CCC(=O)O[C@@H]1CC(=O)O[C@H](C)CC=CC=C[C@H](O)[C@H](C)C[C@H](CC=O)[C@H](O[C@@H]2O[C@H](C)[C@@H](O[C@H]3C[C@@](C)(O)[C@@H](OC(=O)CC)[C@H](C)O3)[C@H](N(C)C)[C@H]2O)[C@H]1OC
> 46 µM	O=C(O)c1ccccc1-c1ccc(C(F)(F)F)cc1
> 46 µM	COc1ccccc1OCC(O)COC(N)=O (configuration not stated)
> 46 µM	COc1cc(OC)cc(OC)c1
> 46 µM	Nc1ccc(C(=O)Oc2ccccc2)c(O)c1
> 46 µM	CCCCCCCCCCCCOCCCN
> 46 µM	NC(=O)CCCCC1CCSS1 (configuration not stated)
> 46 µM	COc1cc(Cc2cnc(N)nc2N)cc(OC)c1OC
> 46 µM	CC1=C(O[C@H](CCNC)[C@@]2=CC=CC=C2)C=CC=C1.Cl
> 46 µM	O=C3N1/C(=C(/Cl)CS[C@@H]1[C@@H]3NC(=O)[C@H](N)c2ccccc2)C(O)=O
> 46 µM	CC(N)C(=O)OC(C)(C)Cc1ccc(Cl)cc1 (configuration not stated)
> 46 µM	CN1CCN(CCC(=O)N2c3ccccc3Sc3ccc(C(F)(F)F)cc32)CC1
> 46 µM	O=C(O)[C@H](O)c1ccccc1
> 46 µM	O=C(O)CCNC(=O)c1ccc(/N=N/c2ccc(O)c(C(=O)O)c2)cc1
> 46 µM	Cl.OC(CCN1CCCCC1)(c1ccccc1)C1CC2C=CC1C2 (configuration not stated)
> 46 µM	CN(C)CCn1nnnc1SCC1=C(C(=O)O)N2C(=O)[C@@H](NC(=O)Cc3csc(N)n3)[C@H]2SC1.Cl.Cl
> 46 µM	CN(CCO)CC(O)Cn1cnc2c1c(=O)n(C)c(=O)n2C.O=C(O)c1cccnc1 (configuration not stated)
> 46 µM	O[C@H]1[C@](CC2)(C)[C@@](C)(C)[C@@H]2C1
> 46 µM	CCN[C@H]1C[C@H](C)S(=O)(=O)c2sc(S(N)(=O)=O)cc21.Cl
> 46 µM	Cc1nnc(NS(=O)(=O)c2ccc(N)cc2)s1
> 46 µM	C#C[C@]1(O)CC[C@H]2[C@@H]3CCC4=CC(=O)CC[C@@H]4[C@H]3C(=C)C[C@@]21CC
> 46 µM	Cl.N=C(N)NC(=N)N1CCOCC1
> 46 µM	CN1CCN(c2cc3c(nn2)Oc2ccccc2N3C)CC1
> 46 µM	CCOC(=O)OC(C)OC1=C(C(=O)Nc2ccccn2)N(C)S(=O)(=O)c2ccccc21 (configuration not stated)

SMILES	IC50
CC(C)(C)NCC(O)c1ccccc1Cl.Cl (configuration not stated)	> 46 µM
N#CC1(N2CCCCC2)CCCCC1	> 46 µM
O[C@H]([C@@]1=CC=CC=C1)[C@H](C)N(C)C	> 46 µM
ClC=C(Cl)Cl	> 46 µM
CCC1(c2ccccc2)C(=O)N(COC)C(=O)N(COC)C1=O	> 46 µM
CC(NC(C)(C)C)C(=O)c1cccc(Cl)c1.Cl (configuration not stated)	> 46 µM
CCC1(c2ccccc2)C(=O)NC(=O)N(C)C1=O (configuration not stated)	> 46 µM
O=C3/C=C4/CC[C@@H]2[C@H](CC[C@]1(C)C(=O)CC[C@H]12)[C@@]4(C)CC3	> 46 µM
O=C1[O][Pt]2([NH][C@@H]3CCCC[C@H]3[NH]2)[O]C1=O	> 46 µM
CCCC(C)(COC(N)=O)COC(N)=O	> 46 µM
CNC(C)(C)Cc1ccccc1.CNC(C)(C)Cc1ccccc1.O=S(=O)(O)O	> 46 µM
COc1ccc2c(c1OC)CN1CCc3cc4c(cc3C1C2)OCO4 (configuration not stated)	> 46 µM
CCC1(C2=NCCN2)Cc2ccccc2O1 (configuration not stated)	> 46 µM
CCNC1(c2cccs2)CCCCC1=O.Cl (configuration not stated)	> 46 µM
COc1ccc(C[C@H](C)NC[C@@H](O)c2ccc(O)c(NC=O)c2)cc1.COc1ccc(C[C@H](C)NC[C@@H](O)c2ccc(O)c(NC=O)c2)cc1.O=C(O)/C=C/C(=O)O	> 46 µM
CCCCCCCCCCCC(=O)[O][Sn]([CH2]CCC)([CH2]CCC)[O]C(=O)CCCCCCCCCCC	> 46 µM
CCC1(CC)C(=O)C=CNC1=O	> 46 µM
CCCCC[C@@H](O)C1C(=O)OC(C)C(O)/C=C/C=C/C=C/C=C/C=C(\C)C(O)C(O)C(O)C[C@H](O)C[C@H](O)C[C@H](O)C[C@H](O)C[C@@H]1O (some centres not stated)	> 46 µM
